Measurements reported in patent US12459951B2, “Compounds that interact with RAS superfamily proteins for treatment of cancers, inflammatory diseases, rasopathies, and fibrotic disease” (SHY Therapeutics, LLC, priority 2022, dated 2025).

What was measured:
IL6 = assay: IL-6 Quantification Assay (ELISA), LPS-stimulated RAW 264.7; assay type: cell-based; set-up: inhibition: dose or concentration left out as unconfirmed; conditions: Mus musculus, RAW264.7; read-out: IL-6: % inh.
Erk1/2 phosphorylation = assay: Erk1/2 Phosphorylation Assay (western blot), Panc-1; assay type: cell-based, human; conditions: at 10 μM, * = activation
Description: Protocol for Western Erk1/2 Cell-Based Phosphorylation Assay
This assay is referred to as the “Erk1/2 Phosphorylation Assay” throughout this application.
Cell lines: Human tumor-derived pancreatic cancer cell line Panc-1 (expressing KRas G12D mutant) was purchased from American Type Culture Collection and grown in complete DMEM-High Glucose medium, supplemented with penicillin (100 U/mL), streptomycin (100 μg/mL), and 10% heat-inactivated FBS at 37° C. in a humidified incubator with 5% CO2.
Method 1: Cells were plated at 350000 cells/well density in a 12-well plate, allowed 3 hours to adhere to the plate, then starved in the appropriate medium in the presence of 0.5% FBS overnight. The small molecules to be tested were added to the cells in the final concentration of 10 μM in the presence of 0.3% DMSO for 6 hours incubation at 37° C. For IC50 value determination, serial dilutions of compounds were added to cells under the same conditions. Next, cells were stimulated with 1.5 ng/ml EGF for 15 minutes then cells were lysed with lysis buffer containing 1% Triton X-100, EDTA, and Halt™ Protease & Phosphatase Inhibitor Cocktail (Thermo Scientific). Protein concentration was assessed by BCA protein assay (Thermo Scientific). Phosphorylation level of Erk1/2 was determined by western blot.
Method 2: Cells were plated at 350000 cells/well density in a 12-well plate in 10% FBS. The next day small molecules to be tested were added to the cells in the final concentration of 10 μM in the presence of 0.3% DMSO for 6 hours incubation at 37° C. For IC50 value determination, serial dilutions of compounds were added to cells under the same conditions. Next, cells were lysed with lysis buffer containing 1% Triton X-100, EDTA, and Halt™ Protease & Phosphatase Inhibitor Cocktail (Thermo Scientific). Protein concentration was assessed by BCA protein assay (Thermo Scientific). Phosphorylation level of Erk1/2 was determined by western blot.
Western blot protocol: Equal amounts of protein (15-50 μg) were separated by SDS-PAGE and transferred to nitrocellulose membranes (Invitrogen by Thermo Fisher Scientific). The membrane was stained with Ponceau S Stain (Boston BioProducts) to verify uniform protein loading. Membranes were blocked with 10% milk and phosphorylation levels of Erk1/2 were assessed by incubating overnight at 4° C. with anti-phospho-p44/42 (Thr202/Tyr204) antibody (Cell Signaling) followed by HRP-conjugated secondary antibody (Jackson Immunoresearch, West Grove, PA). Bands were incubated in Amersham ECL Prime Western Blotting Detection Reagent (GE Healthcare) and visualized using the ChemiDoc MP imaging system (Bio-Rad).

Compound | inhibition (IL6) [%] | % inh of Erk1/2 phosphorylation in Panc-1 (Erk1/2 phosphorylation)
COc1cc(-c2cn3nc(-c4nccn4C)nc(N[C@@H]4CC[C@@H](OC)C4)c3c2C)ccn1 (racemic) [Compound 163, rac N-((1R,3R)-3-Methoxycyclopentyl)-6-(2-methoxypyridin-4-yl)-5-methyl-2-(1-methyl-1H-imidazol-2-yl)pyrrolo[2,1-f][1,2,4]triazin-4-amine] | 75 to 100 | A* (1-25% activation)
COc1cc(Nc2nc(-c3nccn3C)nn3cc(-c4cccnc4)c(-c4ccccn4)c23)ncn1 [Compound 167, N-(6-Methoxypyrimidin-4-yl)-2-(1-methyl-1H-imidazol-2-yl)-5-(pyridin-2-yl)-6-(pyridin-3-yl)pyrrolo[2,1-f][1,2,4]triazin-4-amine] | 0 | A (1-25% inhibition)
CO[C@H]1C[C@@H](Nc2nc(-c3nccn3C)nn3cc(-c4ccn(C)n4)c(C)c23)C1 [Compound 131, N-((1s,3s)-3-Methoxycyclobutyl)-5-methyl-2-(1-methyl-1H-imidazol-2-yl)-6-(1-methyl-1H-pyrazol-3-yl)pyrrolo[2,1-f][1,2,4]triazin-4-amine] | 0 | A* (1-25% activation)
CO[C@@H]1CC[C@@H](Nc2nc(-c3nccn3C)nn3cc(-c4cccnc4)c(C)c23)C1 (racemic) [Compound 154, rac N-((1R,3R)-3-methoxy-cyclopentyl)-5-methyl-2-(1-methyl-1H-imidazol-2-yl)-6-(pyridin-3-yl)pyrrolo[2,1-f][1,2,4]triazin-4-amine] | 25 to 49 | C* (46-84% activation)
Cc1c(-c2ccn(C)n2)cn2nc(-c3nccn3C)nc(Nc3nnco3)c12.Cl [Compound 119, N-(5-Methyl-2-(1-methyl-1H-imidazol-2-yl)-6-(1-methyl-1H-pyrazol-3-yl)pyrrolo[2,1-f][1,2,4]triazin-4-yl)-1,3,4-oxadiazol-2-amine hydrochloride salt] | 50 to 74 | A* (1-25% activation)
CCc1nc(Nc2nc(-c3nccn3C)nn3cc(-c4ccn(C)n4)c(C)c23)nn1C [Compound 108, N-(5-Ethyl-1-methyl-1H-1,2,4-triazol-3-yl)-5-methyl-2-(1-methyl-1H-imidazol-2-yl)-6-(1-methyl-1H-pyrazol-3-yl)pyrrolo[2,1-f][1,2,4]triazin-4-amine] | 50 to 74 | A* (1-25% activation)
Cc1c(-c2ccn(C(C)C)n2)cn2nc(-c3ccccn3)nc(O)c12 [Compound 8, 6-(1-Isopropyl-1H-pyrazol-3-yl)-5-methyl-2-(pyridin-2-yl)pyrrolo[2,1-f][1,2,4]triazin-4-ol] | 0 | 0 (0% inhibition)
COc1ccnc(Nc2nc(-c3nccn3C)nn3cc(-c4ccn(C(F)F)n4)c(C)c23)n1 [Compound 95, 6-(1-(Difluoromethyl)-1H-pyrazol-3-yl)-N-(4-methoxypyrimidin-2-yl)-5-methyl-2-(1-methyl-1H-imidazol-2-yl)pyrrolo[2,1-f][1,2,4]triazin-4-amine] | 1 to 24 | D* (85-100% activation)
CO[C@H]1CC[C@@H](Nc2nc(-c3nccn3C)nn3cc(-c4ccn(C)n4)c(C)c23)C1 (racemic) [Compound 133, rac N-((1R,3S)-3-Methoxycyclopentyl)-5-methyl-2-(1-methyl-1H-imidazol-2-yl)-6-(1-methyl-1H-pyrazol-3-yl)pyrrolo[2,1-f][1,2,4]triazin-4-amine] | 0 | A (1-25% inhibition)
Cc1c(-c2ccn(C)n2)cn2nc(-c3nccn3C)nc(Nc3cc(OCCO)ncn3)c12 [Compound 101, 2-((6-((5-Methyl-2-(1-methyl-1H-imidazol-2-yl)-6-(1-methyl-1H-pyrazol-3-yl)pyrrolo[2,1-f][1,2,4]triazin-4-yl)amino)pyrimidin-4-yl)oxy) ethan-1-ol] | 50 to 74 | A* (1-25% activation)
CO[C@H]1CC[C@@H](Nc2nc(-c3nccn3C)nn3cc(-c4cccnc4)c(C)c23)C1 (racemic) [Compound 155, rac N-((1R,3S)-3-methoxy-cyclopentyl)-5-methyl-2-(1-methyl-1H-imidazol-2-yl)-6-(pyridin-3-yl)pyrrolo[2,1-f][1,2,4]triazin-4-amine] | 25 to 49 | A* (1-25% activation)
COc1cc(Nc2nc(-c3nccn3C)nn3cc(-c4ccn(C(F)F)n4)c(C)c23)ncn1 [Compound 98, 6-(1-(Difluoromethyl)-1H-pyrazol-3-yl)-N-(6-methoxypyrimidin-4-yl)-5-methyl-2-(1-methyl-1H-imidazol-2-yl)pyrrolo[2,1-f][1,2,4]triazin-4-amine] | 1 to 24 | D* (85-100% activation)
COc1ccnc(Nc2nc(-c3nccn3C)nn3cc(-c4ccn(C)n4)c(C)c23)n1.Cl [Compound 114, N-(4-Methoxypyrimidin-2-yl)-5-methyl-2-(1-methyl-1H-imidazol-2-yl)-6-(1-methyl-1H-pyrazol-3-yl)pyrrolo[2,1-f][1,2,4]triazin-4-amine hydrochloride salt] | 75 to 100 | B* (26-49% activation)
Cc1c(-c2ccn(C3CC3)n2)cn2nc(-c3nccn3C)nc(Nc3cc(OCCCN(C)C)ccn3)c12 [Compound 148, 6-(1-Cyclopropyl-1H-pyrazol-3-yl)-N-(4-(3-(dimethylamino)propoxy)pyridin-2-yl)-5-methyl-2-(1-methyl-1H-imidazol-2-yl)pyrrolo[2,1-f][1,2,4]triazin-4-amine] | 1 to 24 | C* (46-84% activation)
CO[C@@H]1CC[C@@H](Nc2nc(-c3nccn3C)nn3cc(-c4ccn(C)n4)c(C)c23)C1 (racemic) [Compound 132, rac N-((1R,3R)-3-Methoxycyclopentyl)-5-methyl-2-(1-methyl-1H-imidazol-2-yl)-6-(1-methyl-1H-pyrazol-3-yl)pyrrolo[2,1-f][1,2,4]triazin-4-amine] | 0 | 0 (0% inhibition)
Cc1c(-c2ccn(C(C)C)n2)cn2nc(-c3nccn3C)nc(Nc3ncc[nH]3)c12 [Compound 125, N-(1H-Imidazol-2-yl)-6-(1-isopropyl-1H-pyrazol-3-yl)-5-methyl-2-(1-methyl-1H-imidazol-2-yl)pyrrolo[2,1-f][1,2,4]triazin-4-amine] | 50 to 74 | A (1-25% inhibition)
COc1cccnc1Nc1nc(-c2nccn2C)nn2cc(-c3ccn(C)n3)c(C)c12 [Compound 112, N-(3-Methoxypyridin-2-yl)-5-methyl-2-(1-methyl-1H-imidazol-2-yl)-6-(1-methyl-1H-pyrazol-3-yl)pyrrolo[2,1-f][1,2,4]triazin-4-amine] | 25 to 49 | A* (1-25% activation)
Cc1c(-c2ccn(C3CC3)n2)cn2nc(-c3nccn3C)nc(Nc3cc(O)ccn3)c12 [Compound 150, 2-((6-(1-Cyclopropyl-1H-pyrazol-3-yl)-5-methyl-2-(1-methyl-1H-imidazol-2-yl)pyrrolo[2,1-f][1,2,4]triazin-4-yl)amino)pyridin-4-ol] | 1 to 24 | A (1-25% inhibition)
Cc1c(-c2ccn(C(C)C)n2)cn2nc(-c3nccn3C)nc(Nc3nccc(OCCO)n3)c12 [Compound 121, 2-((2-((6-(1-Isopropyl-1H-pyrazol-3-yl)-5-methyl-2-(1-methyl-1H-imidazol-2-yl)pyrrolo[2,1-f][1,2,4]triazin-4-yl)amino)pyrimidin-4-yl)oxy)ethan-1-ol] | 50 to 74 | D* (85-100% activation)
